Results: patent publication US12024531B2, “Immunoproteasome inhibitors” (Principia Biopharma Inc., priority 2017, dated 2024)

Tests used:
PBMC LMP7 = PBMC LMP7 (Homo sapiens, UniProt P28062); assay: Inhibition of proteasome activity in cells (Proteasome-Glo), PBMC/LMP7; type: cell-based; settings: 2 h incubation at 37° C.
Method: The cell-based effects of a compound described herein on the immunoproteasome were determined by measuring inhibition of proteasome activity in cells using the Proteasome-Glo™ Cell-Based Reagent (Promega, Madison WI). The Proteasome-Glo™ assay contains a specific luminogenic proteasome substrate in a buffer optimized for cell permeabilization, proteasome activity, and luciferase activity. For the chymotrypsin-like activity (LMP7 and 05c), the peptide substrate is Suc-LLVY-aminoluciferin (Succinyl-leucine-leucine-valine-tyrosine-aminoluciferin). Cleavage of the substrate by proteasome results in luminescent signal which is proportional to the proteasome activity. The cell line THP-1 (a monocytic leukemia cell line enriched in immunoproteasome), the cell line HT-29 (a colorectal adenocarcinoma cell line enriched in constitutive proteasome), and primary human peripheral blood mononuclear cells (PBMC) were used to assess proteasome activity. Cells were seeded in a 96-well plate at 10,000 cells per well in RPMI 1640 high glucose medium with 10% fetal bovine serum (FBS). Compound dilutions were added to cells starting at a concentration of 5 uM and decreasing in tripling dilutions. The final DMSO concentration was 1%. The concentration range was adjusted as needed for compounds of different potencies. The cells treated with compounds were incubated for 2 h at 37° C. in 5% CO2. At the end of the 2 hour incubation period, cells were transferred to white 384 well assay plates. 20 uL of Proteasome-Glo™ Reagent was added to each well and incubated for 10 minutes at rt. The plate was read in the Analyst HT instrument (Molecular Devices, Sunnyvale, CA) using luminescence mode. The percent inhibition of activity was plotted as a function of log compound concentration. The IC50 was then calculated for each compound using Prism software from GraphPad Software Inc. (San Diego, CA).

[1] = molecular target: immunoproteasome LMP7/B5i subunit (Homo sapiens, UniProt P28062); assay: Caliper-based proteasome enzymatic activity assay, LMP7; type: biochemical; settings: human recombinant immunoproteasome 0.3 nM, FAM peptide substrate 1 μM, rt 3 h
[2] = molecular target: constitutive proteasome β5c subunit (Homo sapiens, UniProt P28074); assay: Caliper-based proteasome enzymatic activity assay, β5c; type: biochemical; settings: human recombinant constitutive proteasome 0.3 nM, FAM peptide substrate 1 μM, rt 3 h
[3] = molecular target: immunoproteasome LMP2 subunit (Homo sapiens, UniProt P28065); assay: Caliper-based proteasome enzymatic activity assay, LMP2; type: biochemical; settings: human recombinant immunoproteasome 0.3 nM, FAM peptide substrate 1 μM, rt 2 h

IC50 (PBMC LMP7) [nM]	IC50 [1] [nM]	IC50 [2] [nM]	IC50 [3] [nM]	Structure (SMILES)
4	1.5	1090	> 5000	Cc1ccc(C[C@H](NC(=O)OCCc2cccc(C=C(C#N)C(=O)N(C)C)c2)B(O)O)cc1 [Example 50, (R)-(1-(((3-(2-cyano-3-(dimethylamino)-3-oxoprop-1-en-1-yl)phenethoxy)carbonyl)amino)-2-(p-tolyl)ethyl)boronic Acid]
4	3.3	610	> 5000	N#CC(=Cc1cccc(CCOC(=O)N[C@@H](Cc2ccccc2)B(O)O)c1)c1ncccc1F [Example 54, (R)-(1-(((3-(2-cyano-2-(3-fluoropyridin-2-yl)vinyl)phenethoxy)carbonyl)amino)-2-phenylethyl)boronic Acid]
12	1.7	255	> 5000	CCN(CC)C(=O)C(C#N)=Cc1cccc(CCOC(=O)N[C@@H](Cc2coc3ccccc23)B(O)O)c1 [Example 58, (R)-(2-(benzofuran-3-yl)-1-(((3-(2-cyano-3-(diethylamino)-3-oxoprop-1-en-1-yl)phenethoxy)carbonyl)amino)ethyl)boronic Acid]
3	2	66	> 5000	N#CC(=Cc1cccc(CCOC(=O)N[C@@H](Cc2coc3ccccc23)B(O)O)c1)c1ccccn1 [Example 35, (R)-(2-(benzofuran-3-yl)-1-(((3-(2-cyano-2-(pyridin-2-yl)vinyl)phenethoxy)carbonyl)amino)ethyl)boronic Acid]
2	1.1	167	1020	N#CC(=Cc1cccc(CCOC(=O)N[C@@H](Cc2ccccc2)B(O)O)c1)c1ncccn1 [Example 60, (R)-(1-(((3-(2-cyano-2-(pyrimidin-2-yl)vinyl)phenethoxy)carbonyl)amino)-2-phenylethyl)boronic Acid]
4	2	1180	> 5000	CCN(CC)C(=O)C(C#N)=Cc1cccc(CCOC(=O)N[C@@H](Cc2ccc(C)cc2)B(O)O)c1 [Example 55, (R)-(1-(((3-(2-cyano-3-(diethylamino)-3-oxoprop-1-en-1-yl)phenethoxy)carbonyl)amino)-2-(p-tolyl)ethyl)boronic Acid]
2	0.6	> 5000	4250	CCN(C(=O)C(C#N)=Cc1cccc(CCOC(=O)N[C@@H](Cc2ccccc2)B(O)O)c1)C1CCOCC1 [Example 70, (R)-(1-(((3-(2-cyano-3-(ethyl(tetrahydro-2H-pyran-4-yl)amino)-3-oxoprop-1-en-1-yl)phenethoxy)carbonyl)amino)-2-phenylethyl)boronic Acid]
8	27	260	> 5000	N#CC(=Cc1cccc(OCCC(=O)N[C@@H](CCc2ccccc2)B(O)O)c1)c1ccccn1 [Example 21, (R)-(1-(3-(3-(2-cyano-2-(pyridin-2-yl)vinyl)phenoxy)propanamido)-3-phenylpropyl)boronic Acid]
–	8	100	820	N#CC(=Cc1cccc(OCCC(=O)N[C@@H](Cc2ccccc2)B(O)O)c1)C(=O)N1CCOCC1 [Example 9, (R)-1-(3-(3-(2-cyano-3-morpholino-3-oxoprop-1-enyl)phenoxy)propanamido)-2-phenylethylboronic Acid]
–	4.6	> 5000	> 5000	CCN(C)C(=O)C(C#N)=Cc1cccc(CCOC(=O)N[C@@H](Cc2ccccc2)B(O)O)c1 [Example 90, (R)-(1-(((3-(2-cyano-3-(ethyl(methyl)amino)-3-oxoprop-1-en-1-yl)phenethoxy)carbonyl)amino)-2-phenylethyl)boronic Acid]
–	6	192	393	CN(C)C(=O)C(C#N)=Cc1cc(OCCC(=O)N[C@@H](Cc2ccccc2)B(O)O)ccc1F [Example 42, (R)-(1-(3-(3-(2-cyano-3-(dimethylamino)-3-oxoprop-1-en-1-yl)-4-fluorophenoxy)propanamido)-2-phenylethyl)boronic Acid]
–	27.1	> 5000	2750	CC(C)N(C(=O)C(C#N)=Cc1cccc(CCOC(=O)N[C@@H](Cc2ccccc2)B(O)O)c1)C(C)C (single isomer, unassigned) [Example 74]
–	43	2570	> 5000	Cc1ccc(C[C@H](NC(=O)NCCc2cccc(C=C(C#N)c3ccc(C(F)(F)F)cn3)c2)B(O)O)cc1 [Example 80, (R)-(1-(3-(3-(2-cyano-2-(5-(trifluoromethyl)pyridin-2-yl)vinyl)phenethyl)ureido)-2-(p-tolyl)ethyl)boronic Acid]
–	0.9	2420	2010	CN(C(=O)C(C#N)=Cc1cccc(CCOC(=O)N[C@@H](Cc2ccccc2)B(O)O)c1)C(C)(C)C [Example 71, (R)-(1-(((3-(3-(tert-butyl(methyl)amino)-2-cyano-3-oxoprop-1-en-1-yl)phenethoxy)carbonyl)amino)-2-phenylethyl)boronic Acid]
–	5	74	970	N#CC(=Cc1cccc(OCCC(=O)N[C@@H](Cc2ccccc2)B(O)O)c1)C(=O)NC1CCOCC1 [Example 10, (R)-1-(3-(3-(2-cyano-3-oxo-3-(tetrahydro-2H-pyran-4-ylamino)prop-1-enyl)phenoxy)propanamido)-2-phenylethylboronic Acid]
–	8	4150	3000	N#CC(=Cc1cccc(CCCC(=O)N[C@@H](Cc2ccccc2)B(O)O)c1)n1cncn1 [Example 25, (R)-(1-(4-(3-(2-cyano-2-(1H-1,2,4-triazol-1-yl)vinyl)phenyl)butanamido)-2-phenylethyl)boronic Acid]
–	37	1970	> 5000	Cc1ccc(C[C@H](NC(=O)NCCc2cccc(C=C(C#N)c3ncccn3)c2)B(O)O)cc1 [Example 83, (R)-(1-(3-(3-(2-cyano-2-(pyrimidin-2-yl)vinyl)phenethyl)ureido)-2-(p-tolyl)ethyl)boronic Acid]
–	8.5	70	73.9	N#CC(=Cc1cccc(OCCC(=O)N[C@@H](Cc2ccccc2)B(O)O)c1F)c1ccccn1 [Example 40, (R)-(1-(3-(3-(2-cyano-2-(pyridin-2-yl)vinyl)-2-fluorophenoxy)propanamido)-2-phenylethyl)boronic Acid]
–	2.3	3840	> 5000	CN(CC(F)(F)F)C(=O)C(C#N)=Cc1cccc(CCOC(=O)N[C@@H](Cc2ccccc2)B(O)O)c1 [Example 91, (R)-(1-(((3-(2-cyano-3-(methyl(2,2,2-trifluoroethyl)amino)-3-oxoprop-1-en-1-yl)phenethoxy)carbonyl)amino)-2-phenylethyl)boronic Acid]
–	0.6	440	> 5000	CCN(CC)C(=O)C(C#N)=Cc1cc(C#N)cc(CCOC(=O)N[C@@H](Cc2ccc(C)cc2)B(O)O)c1 [Example 101, (R)-(1-(((3-cyano-5-(2-cyano-3-(diethylamino)-3-oxoprop-1-en-1-yl)phenethoxy)carbonyl)amino)-2-(p-tolyl)ethyl)boronic Acid]
–	2.5	1920	4540	CCN(C(=O)C(C#N)=Cc1cccc(CCOC(=O)N[C@@H](Cc2ccccc2)B(O)O)c1)C(C)C [Example 64, (R)-(1-(((3-(2-cyano-3-(ethyl(isopropyl)amino)-3-oxoprop-1-en-1-yl)phenethoxy)carbonyl)amino)-2-phenylethyl)boronic Acid]
–	0.9	354	544	N#CC(=Cc1cccc(CCOC(=O)N[C@@H](Cc2ccccc2)B(O)O)c1)c1ccncn1 [Example 59, (R)-(1-(((3-(2-cyano-2-(pyrimidin-4-yl)vinyl)phenethoxy)carbonyl)amino)-2-phenylethyl)boronic Acid]
–	0.8	8	> 5000	N#CC(=Cc1cccc(OCCC(=O)N[C@@H](Cc2coc3ccccc23)B(O)O)c1)c1ccccn1 [Example 23, (R)-(2-(benzofuran-3-yl)-1-(3-(3-(2-cyano-2-(pyridin-2-yl)vinyl)phenoxy)propanamido)ethyl)boronic Acid]

Structure (SMILES)	IC50 (PBMC LMP7) [nM]	IC50 [1] [nM]	IC50 [2] [nM]	IC50 [3] [nM]
CCN(CC)C(=O)C(C#N)=Cc1cccc(CCNC(=O)N[C@@H](Cc2ccccc2)B(O)O)c1 [Example 61, (R)-(1-(3-(3-(2-cyano-3-(diethylamino)-3-oxoprop-1-en-1-yl)phenethyl)ureido)-2-phenylethyl)boronic Acid]	–	43.2	> 5000	> 5000
